Source: US8039514B2, “Sulfonamide compounds and use thereof” (Asahi Kasei Pharma Corporation, priority 2008, dated 2011)

Molecular target: T1, human calcium-sensing receptor (CaSR) (Homo sapiens, UniProt P41180)
T1 construct: expressed in transfected cells
T1 sequence (P41180 20-1078): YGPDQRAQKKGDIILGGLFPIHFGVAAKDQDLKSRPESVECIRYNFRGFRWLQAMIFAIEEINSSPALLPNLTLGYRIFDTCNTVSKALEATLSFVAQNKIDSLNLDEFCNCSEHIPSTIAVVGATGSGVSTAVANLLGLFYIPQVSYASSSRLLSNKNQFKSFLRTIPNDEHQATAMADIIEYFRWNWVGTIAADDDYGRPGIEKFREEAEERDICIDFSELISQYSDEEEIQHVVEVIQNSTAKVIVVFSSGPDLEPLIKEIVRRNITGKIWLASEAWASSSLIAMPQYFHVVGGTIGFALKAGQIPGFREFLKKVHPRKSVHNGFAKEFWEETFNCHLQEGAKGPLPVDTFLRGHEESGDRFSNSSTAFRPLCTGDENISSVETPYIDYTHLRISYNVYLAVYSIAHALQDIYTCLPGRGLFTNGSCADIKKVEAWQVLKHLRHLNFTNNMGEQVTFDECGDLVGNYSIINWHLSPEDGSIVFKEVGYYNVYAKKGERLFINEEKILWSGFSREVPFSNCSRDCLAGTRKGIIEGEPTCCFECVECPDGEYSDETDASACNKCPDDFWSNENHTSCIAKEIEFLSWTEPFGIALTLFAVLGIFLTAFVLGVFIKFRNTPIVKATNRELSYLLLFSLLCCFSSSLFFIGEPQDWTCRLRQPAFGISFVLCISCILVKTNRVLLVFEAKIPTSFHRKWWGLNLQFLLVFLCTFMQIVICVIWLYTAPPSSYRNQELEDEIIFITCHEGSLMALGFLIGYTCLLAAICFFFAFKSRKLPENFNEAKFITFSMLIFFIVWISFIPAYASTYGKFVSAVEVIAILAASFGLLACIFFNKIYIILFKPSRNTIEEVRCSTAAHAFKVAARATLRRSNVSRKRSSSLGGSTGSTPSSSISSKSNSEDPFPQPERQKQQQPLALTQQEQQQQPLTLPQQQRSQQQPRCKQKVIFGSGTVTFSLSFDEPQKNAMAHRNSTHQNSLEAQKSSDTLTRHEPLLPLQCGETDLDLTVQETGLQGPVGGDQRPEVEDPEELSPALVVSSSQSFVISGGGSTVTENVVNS
Assay: intracellular Ca assay, CaSR antagonist activity in HEK293/hCaSR cells
Assay type: cell-based
Conditions: Fura2-AM, inhibition of response to calcium chloride ligand solution, read-out: IC50 values according to the intracellular Ca assay (CaSR antagonist activity)
In short: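 HEK293/hCaSR cells were loaded with Fura2-AM and pre-incubated with compound for 160 s at 37° C in HEPES buffer (pH 7.4, 0.8 mM CaCl2), then challenged with calcium ligand solution. Read-out was the peak 340/380 nm fluorescence ratio; inhibition is relative to no-compound (0%) and no-calcium-ligand (100%) controls.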

| IC50 | SMILES |
| --- | --- |
| 300 to 1000 nM | Cc1ccc(CC(C)(C)NC[C@@H](O)CN(C)S(=O)(=O)c2cccc(-c3ccc(C(=O)O)cc3F)c2)cc1F [Exp. 3-67, (R)-2-fluoro-3′-(N-(3-(1-(3-fluoro-4-methylphenyl)-2-methylpropan-2-ylamino)-2-hydroxypropyl)-N-methylsulfamoyl)biphenyl-4-carboxylic acid] |
| 1000 to 3000 nM | Cc1ccc(CC(C)(C)NC[C@@H](O)CN(C)S(=O)(=O)c2cccc(-c3cc(F)cc(C(=O)O)c3)c2)cc1F [Exp. 3-71, (R)-5-fluoro-3′-(N-(3-(1-(3-fluoro-4-methylphenyl)-2-methylpropan-2-ylamino)-2-hydroxypropyl)-N-methylsulfamoyl)biphenyl-3-carboxylic acid] |
| 1000 to 3000 nM | CN(C[C@H](O)CNC(C)(C)Cc1ccc(Cl)c(F)c1)S(=O)(=O)c1cccc(-c2ccc(C(=O)O)cc2F)c1 [Exp. 3-76, (R)-3′-(N-(3-(1-(4-chloro-3-fluorophenyl)-2-methylpropan-2-ylamino)-2-hydroxypropyl)-N-methylsulfamoyl)-2-fluorobiphenyl-4-carboxylic acid] |
| 1000 to 3000 nM | CN(C[C@H](O)CNC(C)(C)Cc1ccc(Cl)c(F)c1)S(=O)(=O)c1cccc(-c2ccc(CCC(=O)O)cc2)c1 [Exp. 3-78, (R)-3-(3′-(N-(3-(1-(4-chloro-3-fluorophenyl)-2-methylpropan-2-ylamino)-2-hydroxypropyl)-N-methylsulfamoyl)biphenyl-4-yl)propionic acid] |
| 300 to 1000 nM | Cc1cc(-c2ccccc2CS(=O)(=O)N(C)C[C@H](O)CNC(C)(C)Cc2ccc3ccccc3c2)ccc1C(=O)O [Exp. 3-81, (R)-2′-((N-(2-hydroxy-3-(2-methyl-1-(naphthalen-2-yl)propan-2-ylamino)propyl)-N-methylsulfamoyl)methyl)-3-methylbiphenyl-4-carboxylic acid] |
| 1000 to 3000 nM | CN(C[C@H](O)CNC(C)(C)Cc1ccc2ccccc2c1)S(=O)(=O)Cc1ccccc1-c1cccc(C=CC(=O)O)c1 [Exp. 3-84, (R)-3-(2′-((N-(2-hydroxy-3-(2-methyl-1-(naphthalen-2-yl)propan-2-ylamino)propyl)-N-methylsulfamoyl)methyl)biphenyl-3-yl)acrylic acid] |
| 1000 to 3000 nM | CN(C[C@H](O)CNC(C)(C)Cc1ccc2ccccc2c1)S(=O)(=O)Cc1ccccc1-c1cc(F)cc(C(=O)O)c1 [Exp. 3-85, (R)-5-fluoro-2′-((N-(2-hydroxy-3-(2-methyl-1-(naphthalen-2-yl)propan-2-ylamino)propyl)-N-methylsulfamoyl)methyl)biphenyl-3-carboxylic acid] |
| 300 to 1000 nM | CN(C[C@H](O)CNC(C)(C)Cc1ccc2ccccc2c1)S(=O)(=O)Cc1cccc(-c2ccc(C=CC(=O)O)cc2)c1 [Exp. 3-86, (R)-3-(3′-((N-(2-hydroxy-3-(2-methyl-1-(naphthalen-2-yl)propan-2-ylamino)propyl)-N-methylsulfamoyl)methyl)biphenyl-4-yl)acrylic acid] |
| 1000 to 3000 nM | CN(C[C@H](O)CNC(C)(C)Cc1ccc2ccccc2c1)S(=O)(=O)Cc1cccc(-c2ccc(CCC(=O)O)cc2)c1 [Exp. 3-87, (R)-3-(3′-((N-(2-hydroxy-3-(2-methyl-1-(naphthalen-2-yl)propan-2-ylamino)propyl)-N-methylsulfamoyl)methyl)biphenyl-4-yl)propionic acid] |
| 1000 to 3000 nM | CN(C[C@H](O)CNC(C)(C)Cc1ccc2ccccc2c1)S(=O)(=O)Cc1ccc(-c2ccc(CCC(=O)O)cc2)cc1 [Exp. 3-90, (R)-3-(4′-((N-(2-hydroxy-3-(2-methyl-1-(naphthalen-2-yl)propan-2-ylamino)propyl)-N-methylsulfamoyl)methyl)biphenyl-4-yl)propionic acid] |
| 1000 to 3000 nM | CN(C[C@H](O)CNC(C)(C)Cc1ccc2ccccc2c1)S(=O)(=O)Cc1ccc(-c2cccc(C=CC(=O)O)c2)cc1 [Exp. 3-91, (R)-3-(4′-((N-(2-hydroxy-3-(2-methyl-1-(naphthalen-2-yl)propan-2-ylamino)propyl)-N-methylsulfamoyl)methyl)biphenyl-3-yl)acrylic acid] |
| ≤ 300 nM | Cc1c(C(=O)O)cccc1-c1cccc(S(=O)(=O)N(C)C[C@H](O)CNC(C)(C)CC2Cc3ccccc3C2)c1 [Exp. 3-92, (R)-3′-(N-(3-(1-(2,3-dihydro-1H-inden-2-yl)-2-methylpropan-2-ylamino)-2-hydroxypropyl)-N-methylsulfamoyl)-2-methylbiphenyl-3-carboxylic acid] |
| ≤ 300 nM | CN(C[C@H](O)CNC(C)(C)CCCc1ccccc1)S(=O)(=O)c1ccc(-c2ccc(CCC(=O)O)cc2)c(Cl)c1 [Exp. 3-114, (R)-3-(2′-chloro-4′-(N-(2-hydroxy-3-(2-methyl-5-phenylpentan-2-ylamino)propyl)-N-methylsulfamoyl)biphenyl-4-yl)propionic acid] |
| ≤ 300 nM | CCc1cc(-c2ccc(CCC(=O)O)cc2)ccc1S(=O)(=O)N(C)C[C@H](O)CNC(C)(C)CCCc1ccccc1 [Exp. 3-116, (R)-3-(3′-ethyl-4′-(N-(2-hydroxy-3-(2-methyl-5-phenylpentan-2-ylamino)propyl)-N-methylsulfamoyl)biphenyl-4-yl)propionic acid] |
| ≤ 300 nM | CN(C[C@H](O)CNC(C)(C)CC1Cc2ccccc2C1)S(=O)(=O)c1ccc(-c2cccc(C(=O)O)c2)cc1C(F)(F)F [Exp. 3-124, (R)-4′-(N-(3-(1-(2,3-dihydro-1H-inden-2-yl)-2-methylpropan-2-ylamino)-2-hydroxypropyl)-N-methylsulfamoyl)-3′-(trifluoromethyl)biphenyl-3-carboxylic acid] |
| ≤ 300 nM | CN(C[C@H](O)CNC(C)(C)CC1Cc2ccccc2C1)S(=O)(=O)c1c(Cl)cc(-c2cccc(C(=O)O)c2)cc1Cl [Exp. 3-126, (R)-3′,5′-dichloro-4′-(N-(3-(1-(2,3-dihydro-1H-inden-2-yl)-2-methylpropan-2-ylamino)-2-hydroxypropyl)-N-methylsulfamoyl)biphenyl-3-carboxylic acid] |
| ≤ 300 nM | CN(C[C@H](O)CNC(C)(C)CC1Cc2ccccc2C1)S(=O)(=O)c1cc(-c2cc(F)cc(C(=O)O)c2)cc(C(F)(F)F)c1 [Exp. 3-128, (R)-3′-(N-(3-(1-(2,3-dihydro-1H-inden-2-yl)-2-methylpropan-2-ylamino)-2-hydroxypropyl)-N-methylsulfamoyl)-5-fluoro-5′-(trifluoromethyl)biphenyl-3-carboxylic acid] |
| ≤ 300 nM | CN(C[C@H](O)CNC(C)(C)CC1Cc2ccccc2C1)S(=O)(=O)c1cccc(-c2ccc(C(=O)O)s2)c1 [Exp. 3-130, (R)-5-(3-(N-(3-(1-(2,3-dihydro-1H-inden-2-yl)-2-methylpropan-2-ylamino)-2-hydroxypropyl)-N-methylsulfamoyl)phenyl)thiophen-2-carboxylic acid] |
| ≤ 300 nM | CN(C[C@H](O)CNC(C)(C)CC1Cc2ccccc2C1)S(=O)(=O)c1cc(-c2ccc(CC(=O)O)cc2)cc(C(F)(F)F)c1 [Exp. 3-133, (R)-2-(3′-(N-(3-(1-(2,3-dihydro-1H-inden-2-yl)-2-methylpropan-2-ylamino)-2-hydroxypropyl)-N-methylsulfamoyl)-5′-(trifluoromethyl)biphenyl-4-yl)acetic acid] |
| ≤ 300 nM | CN(C[C@H](O)CNC(C)(C)CC1Cc2ccccc2C1)S(=O)(=O)c1c(Cl)cc(-c2ccc(CC(=O)O)cc2)cc1Cl [Exp. 3-140, (R)-2-(3′,5′-dichloro-4′-(N-(3-(1-(2,3-dihydro-1H-inden-2-yl)-2-methylpropan-2-ylamino)-2-hydroxypropyl)-N-methylsulfamoyl)biphenyl-4-yl)acetic acid] |
| ≤ 300 nM | CCc1cc(-c2ccc(CC(=O)O)cc2)ccc1S(=O)(=O)N(C)C[C@H](O)CNC(C)(C)CC1Cc2ccccc2C1 [Exp. 3-147, (R)-2-(4′-(N-(3-(1-(2,3-dihydro-1H-inden-2-yl)-2-methylpropan-2-ylamino)-2-hydroxypropyl)-N-methylsulfamoyl)-3′-ethylbiphenyl-4-yl)acetic acid] |
| ≤ 300 nM | CN(C[C@H](O)CNC(C)(C)CC1Cc2ccccc2C1)S(=O)(=O)c1cc(-c2cccc(CC(=O)O)c2)cc(C(F)(F)F)c1 [Exp. 3-154, (R)-2-(3′-(N-(3-(1-(2,3-dihydro-1H-inden-2-yl)-2-methylpropan-2-ylamino)-2-hydroxypropyl)-N-methylsulfamoyl)-5′-(trifluoromethyl)biphenyl-3-yl)acetic acid] |
